According to patent US20130101628A1 (NORTHWESTERN UNIVERSITY, priority 2011, published 2013):

Tests used:
[1] = biological target: T1, VEGF receptor 2 (VEGFR2 or KDR) (Homo sapiens, UniProt P35968); experiment: Sandwich ELISA of phosphorylated VEGFR2 in lysates of stimulated HUVEC; type: cell-based
T1 construct: host or cells: HUVEC
Description: (§1) Human umbilical vein endothelial cells (HUVECs) and complete endothelial cell growth media (EGM) were purchased (Genlantis, San Diego, Calif.), passaged two times following receipt, and cryo-preserved in media with 5% DMSO. Cells were thawed as needed and grown to confluence in a […] flasks (VWR Falcon) prior to plating for experiments.
(§2) Phosphorylation of both VEGFRI and VEGFR2 was assayed using commercially available assay kit (R&D Systems, Minneapolis, Minn.) following the recommended protocol. First, confluent HUVECs plated in 24 well plates were starved for 5 hours in serum-free defined media (SFDM, Genlantis) specifically designed to maintain cells in a growth factor-free setting for growth factor signaling and metabolic assays. Following starvation, the various treatments were dissolved in SFDM to a concentration of 1 μM. […] Cells were exposed to treatment for 2 minutes. To evaluate the time-course of phosphorylation the same protocol was followed and cells were exposed to VEGF-PA for 0, 1, 3, 5, 10, 15, 20, 25, 30, 40, 50, and 60 minutes.

[2] = biological target: T2, VEGF receptor 1 (VEGFR1 or Flt-1) (Homo sapiens, UniProt P17948); experiment: Sandwich ELISA of phosphorylated VEGFR1 in lysates of stimulated HUVEC; type: cell-based; conditions: HUVEC, native VEGF 100 ng/ml positive control, 2 minutes exposure
T2 construct: host or cells: HUVEC
Description: as §1, §2

T2 sequence (P17948 27-1338): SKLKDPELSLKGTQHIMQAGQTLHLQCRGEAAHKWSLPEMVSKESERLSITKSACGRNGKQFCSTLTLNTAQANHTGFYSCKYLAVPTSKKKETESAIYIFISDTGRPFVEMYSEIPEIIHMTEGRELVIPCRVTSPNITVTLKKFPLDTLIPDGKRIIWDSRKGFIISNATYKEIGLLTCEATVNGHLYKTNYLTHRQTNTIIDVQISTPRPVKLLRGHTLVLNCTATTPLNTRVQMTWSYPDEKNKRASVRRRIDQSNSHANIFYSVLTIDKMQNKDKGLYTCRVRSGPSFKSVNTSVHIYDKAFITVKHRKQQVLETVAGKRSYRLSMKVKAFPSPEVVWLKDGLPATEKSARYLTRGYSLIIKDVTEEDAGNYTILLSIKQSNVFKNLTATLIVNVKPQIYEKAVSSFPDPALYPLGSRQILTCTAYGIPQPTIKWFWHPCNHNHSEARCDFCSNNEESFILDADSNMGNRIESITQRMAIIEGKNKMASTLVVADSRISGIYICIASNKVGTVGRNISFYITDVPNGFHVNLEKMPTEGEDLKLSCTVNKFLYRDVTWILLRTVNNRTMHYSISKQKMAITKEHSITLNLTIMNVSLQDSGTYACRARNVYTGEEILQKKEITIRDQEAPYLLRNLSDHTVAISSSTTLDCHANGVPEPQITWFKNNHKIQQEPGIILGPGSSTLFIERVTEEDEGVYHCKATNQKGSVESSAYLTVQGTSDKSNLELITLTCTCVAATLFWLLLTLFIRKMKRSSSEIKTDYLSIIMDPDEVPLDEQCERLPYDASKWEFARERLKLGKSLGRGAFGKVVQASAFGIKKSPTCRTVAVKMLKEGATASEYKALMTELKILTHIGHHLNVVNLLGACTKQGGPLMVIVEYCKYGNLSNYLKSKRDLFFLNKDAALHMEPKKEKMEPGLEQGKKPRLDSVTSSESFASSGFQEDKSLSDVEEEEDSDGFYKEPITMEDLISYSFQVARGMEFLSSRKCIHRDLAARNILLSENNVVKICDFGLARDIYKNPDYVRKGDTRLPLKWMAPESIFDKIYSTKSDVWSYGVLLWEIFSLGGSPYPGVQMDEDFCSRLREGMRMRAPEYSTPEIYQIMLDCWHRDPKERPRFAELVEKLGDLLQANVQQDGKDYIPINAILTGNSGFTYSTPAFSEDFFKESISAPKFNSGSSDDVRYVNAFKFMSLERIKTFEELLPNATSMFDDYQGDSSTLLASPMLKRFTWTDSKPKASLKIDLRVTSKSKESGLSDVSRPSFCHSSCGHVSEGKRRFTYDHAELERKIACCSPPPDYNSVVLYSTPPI
T1 sequence (P35968 20-1356): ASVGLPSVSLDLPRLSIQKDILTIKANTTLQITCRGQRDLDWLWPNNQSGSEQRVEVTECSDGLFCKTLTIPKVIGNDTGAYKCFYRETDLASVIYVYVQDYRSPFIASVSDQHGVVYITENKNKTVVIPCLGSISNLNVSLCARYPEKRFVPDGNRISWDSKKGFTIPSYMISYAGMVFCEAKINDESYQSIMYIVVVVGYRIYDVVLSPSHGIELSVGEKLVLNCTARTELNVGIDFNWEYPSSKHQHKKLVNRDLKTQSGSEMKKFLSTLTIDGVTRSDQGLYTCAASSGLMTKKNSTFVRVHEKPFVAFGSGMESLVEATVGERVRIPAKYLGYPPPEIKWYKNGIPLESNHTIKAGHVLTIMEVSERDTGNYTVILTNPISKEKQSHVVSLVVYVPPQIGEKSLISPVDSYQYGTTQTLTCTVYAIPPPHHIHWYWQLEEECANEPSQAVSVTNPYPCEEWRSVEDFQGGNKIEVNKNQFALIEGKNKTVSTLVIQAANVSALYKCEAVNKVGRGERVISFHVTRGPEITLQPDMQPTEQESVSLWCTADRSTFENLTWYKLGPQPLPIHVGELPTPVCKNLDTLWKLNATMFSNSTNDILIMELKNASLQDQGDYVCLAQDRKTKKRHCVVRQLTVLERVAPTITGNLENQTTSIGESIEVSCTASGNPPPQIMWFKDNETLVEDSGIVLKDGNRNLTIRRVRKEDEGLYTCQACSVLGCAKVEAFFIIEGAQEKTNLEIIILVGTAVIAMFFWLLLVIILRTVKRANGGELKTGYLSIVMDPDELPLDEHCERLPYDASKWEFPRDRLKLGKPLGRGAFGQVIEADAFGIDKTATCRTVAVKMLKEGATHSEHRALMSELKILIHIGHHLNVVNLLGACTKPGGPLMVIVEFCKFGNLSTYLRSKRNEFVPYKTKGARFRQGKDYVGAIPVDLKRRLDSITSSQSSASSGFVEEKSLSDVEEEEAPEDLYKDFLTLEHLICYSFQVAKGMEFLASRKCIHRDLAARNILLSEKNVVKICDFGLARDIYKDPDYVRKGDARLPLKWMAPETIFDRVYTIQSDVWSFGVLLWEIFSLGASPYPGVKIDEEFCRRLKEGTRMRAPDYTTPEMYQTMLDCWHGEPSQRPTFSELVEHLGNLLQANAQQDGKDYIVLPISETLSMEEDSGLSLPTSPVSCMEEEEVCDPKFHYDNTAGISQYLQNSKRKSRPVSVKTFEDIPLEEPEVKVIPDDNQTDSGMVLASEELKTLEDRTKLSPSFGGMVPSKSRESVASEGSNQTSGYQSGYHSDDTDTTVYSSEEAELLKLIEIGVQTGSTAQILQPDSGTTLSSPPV

VEGF
VEGFR2 phosphorylation level relative to untreated control [1]: 1.311±0.106
amount of phosphorylated VEGFR1, times untreated control [2]: 1.306±0.044
